{"source": "ChEMBL document CHEMBL3525908", "about": "“Chronic doxorubicin cardiotoxicity modulates cardiac cytochrome P450-mediated arachidonic acid metabolism in rats” (Drug Metab Dispos, 2012)", "key": {"Rattus norvegicus [1]": {"test_system": "Rattus norvegicus", "test": "Toxicity in Sprague-Dawley rat assessed as induction of IL-6 gene expression in kidney administered as cumulative dose of 15 mg/kg, ip divided into 6 injections for 2 weeks followed by compound washout period of 14 days by RT-PCR analysis relative to control", "format": "organism-based", "parameters": "dose 15 mg/kg, route intraperitoneal", "settings": "336 h; call rule not given here"}, "Rattus norvegicus [2]": {"test_system": "Rattus norvegicus", "test": "(§1) Induction of CYP450-mediated arachidonic acid metabolism in Sprague-Dawley rat heart microsomes assessed as 8,9-EET formation administered as cumulative dose of 15 mg/kg, ip divided into 6 injections for 2 weeks followed by compound washout period of 14 days by LC-ESI-MS analysis relative to control", "format": "ADME, organism-based", "parameters": "dose 15 mg/kg, route intraperitoneal", "settings": "336 h"}, "Rattus norvegicus [3]": {"test_system": "Rattus norvegicus", "test": "as §1, with “14,15-DHET” for “8,9-EET”", "format": "ADME, organism-based", "parameters": "dose 15 mg/kg, route intraperitoneal", "settings": "336 h"}, "Rattus norvegicus [4]": {"test_system": "Rattus norvegicus", "test": "Toxicity in Sprague-Dawley rat assessed as CYP2B1 gene expression in kidney administered as cumulative dose of 15 mg/kg, ip divided into 6 injections for 2 weeks followed by compound washout period of 14 days by RT-PCR analysis relative to control", "format": "organism-based", "parameters": "dose 15 mg/kg, route intraperitoneal", "settings": "in vivo, 336 h"}, "CYP4F5 [5]": {"test_system": "CYP4F5", "test": "Cardiotoxicity in Sprague-Dawley rat assessed as increase in CYP4F5 gene expression level administered as cumulative dose of 15 mg/kg, ip divided into 6 injections for 2 weeks followed by compound washout period of 14 days by RT-PCR analysis relative to control", "format": "toxicity, organism-based", "parameters": "dose 15 mg/kg, route intraperitoneal", "settings": "heart"}, "H9c2 [6]": {"test_system": "H9c2", "test": "Cytotoxicity against rat H9c2 cells assessed as reduction in ANP mRNA expression at 1 uM after 6 hrs in presence of HET0016", "format": "cell-based", "settings": "h9c2, 6 h"}, "EPHX2": {"test_system": "EPHX2", "test": "Cardiotoxicity in Sprague-Dawley rat assessed as increase in EPHX2 gene expression level administered as cumulative dose of 15 mg/kg, ip divided into 6 injections for 2 weeks followed by compound washout period of 14 days by RT-PCR analysis relative to control", "format": "toxicity, organism-based", "parameters": "dose 15 mg/kg, route intraperitoneal", "settings": "heart"}, "Rattus norvegicus [7]": {"test_system": "Rattus norvegicus", "test": "Cardiotoxicity in Sprague-Dawley rat assessed as increase in p53 gene expression level administered as cumulative dose of 15 mg/kg, ip divided into 6 injections for 2 weeks followed by compound washout period of 14 days by RT-PCR analysis relative to control", "format": "toxicity, organism-based", "parameters": "dose 15 mg/kg, route intraperitoneal", "settings": "in vivo, 336 h"}, "Rattus norvegicus [8]": {"test_system": "Rattus norvegicus", "test": "Cardiotoxicity in Sprague-Dawley rat assessed as increase in CYP2C11 gene expression level administered as cumulative dose of 15 mg/kg, ip divided into 6 injections for 2 weeks followed by compound washout period of 14 days by RT-PCR analysis relative to control", "format": "toxicity, organism-based", "parameters": "dose 15 mg/kg, route intraperitoneal", "settings": "in vivo, 336 h"}, "Rattus norvegicus [9]": {"test_system": "Rattus norvegicus", "test": "Cardiotoxicity in Sprague-Dawley rat assessed as increase in CYP4A1 gene expression level administered as cumulative dose of 15 mg/kg, ip divided into 6 injections for 2 weeks followed by compound washout period of 14 days by RT-PCR analysis relative to control", "format": "toxicity, organism-based", "parameters": "dose 15 mg/kg, route intraperitoneal", "settings": "in vivo, 336 h"}, "Rattus norvegicus [10]": {"test_system": "Rattus norvegicus", "test": "Toxicity in Sprague-Dawley rat assessed as induction of TNF-alpha gene expression in liver administered as cumulative dose of 15 mg/kg, ip divided into 6 injections for 2 weeks followed by compound washout period of 14 days by RT-PCR analysis relative to control", "format": "organism-based", "parameters": "dose 15 mg/kg, route intraperitoneal", "settings": "336 h"}, "Rattus norvegicus [11]": {"test_system": "Rattus norvegicus", "test": "Cardiotoxicity in Sprague-Dawley rat assessed as increase in CYP2J3 gene expression level administered as cumulative dose of 15 mg/kg, ip divided into 6 injections for 2 weeks followed by compound washout period of 14 days by RT-PCR analysis relative to control", "format": "toxicity, organism-based", "parameters": "dose 15 mg/kg, route intraperitoneal", "settings": "in vivo, 336 h"}, "Rattus norvegicus [12]": {"test_system": "Rattus norvegicus", "test": "as §1, with “[…]-mediated” for “CYP450-mediated”, “20-HETE” for “8,9-EET”", "format": "ADME, organism-based", "parameters": "dose 15 mg/kg, route intraperitoneal", "settings": "336 h"}, "H9c2 [13]": {"test_system": "H9c2", "test": "Cytotoxicity against rat H9c2 cells assessed as reduction in ANP mRNA expression at 1 uM after 6 hrs in presence of t-AUCB", "format": "cell-based", "settings": "h9c2, 6 h"}, "CYP4F5 [14]": {"test_system": "CYP4F5", "test": "Toxicity in Sprague-Dawley rat assessed as induction of CYP4F5 gene expression in kidney administered as cumulative dose of 15 mg/kg, ip divided into 6 injections for 2 weeks followed by compound washout period of 14 days by RT-PCR analysis relative to control", "format": "organism-based", "parameters": "dose 15 mg/kg, route intraperitoneal"}, "Rattus norvegicus [15]": {"test_system": "Rattus norvegicus", "test": "Cardiotoxicity in Sprague-Dawley rat assessed as increase in alpha-MHC gene expression level administered as cumulative dose of 15 mg/kg, ip divided into 6 injections for 2 weeks followed by compound washout period of 14 days by RT-PCR analysis relative to control", "format": "toxicity, organism-based", "parameters": "dose 15 mg/kg, route intraperitoneal", "settings": "in vivo, 336 h"}, "Rattus norvegicus [16]": {"test_system": "Rattus norvegicus", "test": "Toxicity in Sprague-Dawley rat assessed as inhibition of CYP2B1 gene expression in liver administered as cumulative dose of 15 mg/kg, ip divided into 6 injections for 2 weeks followed by compound washout period of 14 days by RT-PCR analysis relative to control", "format": "organism-based", "parameters": "dose 15 mg/kg, route intraperitoneal", "settings": "in vivo, 336 h"}, "Rattus norvegicus [17]": {"test_system": "Rattus norvegicus", "test": "Toxicity in Sprague-Dawley rat assessed as CYP4F4 gene expression in kidney administered as cumulative dose of 15 mg/kg, ip divided into 6 injections for 2 weeks followed by compound washout period of 14 days by RT-PCR analysis relative to control", "format": "organism-based", "parameters": "dose 15 mg/kg, route intraperitoneal", "settings": "in vivo, 336 h"}, "H9c2 [18]": {"test_system": "H9c2", "test": "Cytotoxicity against rat H9c2 cells assessed as reduction in BNP mRNA expression at 1 uM after 6 hrs in presence of t-AUCB", "format": "cell-based", "settings": "h9c2, 6 h"}, "Rattus norvegicus [19]": {"test_system": "Rattus norvegicus", "test": "Cardiotoxicity in Sprague-Dawley rat assessed as increase in Bax gene expression level administered as cumulative dose of 15 mg/kg, ip divided into 6 injections for 2 weeks followed by compound washout period of 14 days by RT-PCR analysis relative to control", "format": "toxicity, organism-based", "parameters": "dose 15 mg/kg, route intraperitoneal", "settings": "in vivo, 336 h"}, "Rattus norvegicus [20]": {"test_system": "Rattus norvegicus", "test": "Toxicity in Sprague-Dawley rat assessed as induction of TNF-alpha gene expression in kidney administered as cumulative dose of 15 mg/kg, ip divided into 6 injections for 2 weeks followed by compound washout period of 14 days by RT-PCR analysis relative to control", "format": "organism-based", "parameters": "dose 15 mg/kg, route intraperitoneal", "settings": "336 h"}, "Rattus norvegicus [21]": {"test_system": "Rattus norvegicus", "test": "Toxicity in Sprague-Dawley rat assessed as CYP2C11 gene expression in kidney administered as cumulative dose of 15 mg/kg, ip divided into 6 injections for 2 weeks followed by compound washout period of 14 days by RT-PCR analysis relative to control", "format": "organism-based", "parameters": "dose 15 mg/kg, route intraperitoneal", "settings": "in vivo, 336 h"}, "Rattus norvegicus [22]": {"test_system": "Rattus norvegicus", "test": "Cardiotoxicity in Sprague-Dawley rat assessed as increase in CYP4F4 gene expression level administered as cumulative dose of 15 mg/kg, ip divided into 6 injections for 2 weeks followed by compound washout period of 14 days by RT-PCR analysis relative to control", "format": "toxicity, organism-based", "parameters": "dose 15 mg/kg, route intraperitoneal", "settings": "in vivo, 336 h"}, "Rattus norvegicus [23]": {"test_system": "Rattus norvegicus", "test": "Toxicity in Sprague-Dawley rat assessed as CYP4F1 gene expression in kidney administered as cumulative dose of 15 mg/kg, ip divided into 6 injections for 2 weeks followed by compound washout period of 14 days by RT-PCR analysis relative to control", "format": "organism-based", "parameters": "dose 15 mg/kg, route intraperitoneal", "settings": "in vivo, 336 h"}, "Rattus norvegicus [24]": {"test_system": "Rattus norvegicus", "test": "Toxicity in Sprague-Dawley rat assessed as CYP2J3 gene expression in liver administered as cumulative dose of 15 mg/kg, ip divided into 6 injections for 2 weeks followed by compound washout period of 14 days by RT-PCR analysis relative to control", "format": "organism-based", "parameters": "dose 15 mg/kg, route intraperitoneal", "settings": "in vivo, 336 h"}, "Rattus norvegicus [25]": {"test_system": "Rattus norvegicus", "test": "Cardiotoxicity in Sprague-Dawley rat assessed as increase in ANP gene expression level administered as cumulative dose of 15 mg/kg, ip divided into 6 injections for 2 weeks followed by compound washout period of 14 days by RT-PCR analysis relative to control", "format": "toxicity, organism-based", "parameters": "dose 15 mg/kg, route intraperitoneal", "settings": "336 h"}, "Rattus norvegicus [26]": {"test_system": "Rattus norvegicus", "test": "Toxicity in Sprague-Dawley rat assessed as inhibition of CYP2B2 gene expression in liver administered as cumulative dose of 15 mg/kg, ip divided into 6 injections for 2 weeks followed by compound washout period of 14 days by RT-PCR analysis relative to control", "format": "organism-based", "parameters": "dose 15 mg/kg, route intraperitoneal", "settings": "in vivo, 336 h"}}}
{"smiles": "COc1cccc2c1C(=O)c1c(O)c3c(c(O)c1C2=O)C[C@@](O)(C(=O)CO)C[C@@H]3O[C@H]1C[C@H](N)[C@H](O)[C@H](C)O1", "note": "[DOXORUBICIN]", "values": [{"measurement": "fold induction at 15 mg/kg", "setting": "Rattus norvegicus [1]", "value": 4.7}, {"measurement": "Activity", "setting": "Rattus norvegicus [2]", "value": "Active"}, {"measurement": "Ratio", "setting": "Rattus norvegicus [3]", "value": 1.3}, {"measurement": "Activity", "setting": "Rattus norvegicus [4]", "value": "Non-toxic"}, {"measurement": "fold induction at 336 h", "setting": "CYP4F5 [5]", "value": 2}, {"measurement": "Activity", "setting": "H9c2 [6]", "value": "Toxic"}, {"measurement": "fold induction at 336 h", "setting": "EPHX2", "value": 1.9}, {"measurement": "Ratio", "setting": "Rattus norvegicus [7]", "value": 1.7}, {"measurement": "Activity", "setting": "Rattus norvegicus [8]", "value": "Non-toxic"}, {"measurement": "Activity", "setting": "Rattus norvegicus [9]", "value": "Non-toxic"}, {"measurement": "fold induction at 15 mg/kg", "setting": "Rattus norvegicus [10]", "value": 2.2}, {"measurement": "Activity", "setting": "Rattus norvegicus [11]", "value": "Non-toxic"}, {"measurement": "Activity", "setting": "Rattus norvegicus [12]", "value": "Toxic"}, {"measurement": "Activity", "setting": "H9c2 [13]", "value": "Toxic"}, {"measurement": "fold induction at 336 h", "setting": "CYP4F5 [14]", "value": 1.7}, {"measurement": "Ratio", "setting": "Rattus norvegicus [15]", "value": 1.6}, {"measurement": "Ratio", "setting": "Rattus norvegicus [16]", "value": 0.5}, {"measurement": "Activity", "setting": "Rattus norvegicus [17]", "value": "Non-toxic"}, {"measurement": "Activity", "setting": "H9c2 [18]", "value": "Toxic"}, {"measurement": "Ratio", "setting": "Rattus norvegicus [19]", "value": 1.9}, {"measurement": "fold induction at 15 mg/kg", "setting": "Rattus norvegicus [20]", "value": 2.9}, {"measurement": "Activity", "setting": "Rattus norvegicus [21]", "value": "Non-toxic"}, {"measurement": "Activity", "setting": "Rattus norvegicus [22]", "value": "Non-toxic"}, {"measurement": "Activity", "setting": "Rattus norvegicus [23]", "value": "Non-toxic"}, {"measurement": "Activity", "setting": "Rattus norvegicus [24]", "value": "Non-toxic"}, {"measurement": "fold induction at 15 mg/kg", "setting": "Rattus norvegicus [25]", "value": 3.5}, {"measurement": "Ratio", "setting": "Rattus norvegicus [26]", "value": 0.5}]}
